The text below walks through data of PMC5066151 (ACS Medicinal Chemistry Letters, 2016).

For data set [1], the system named is human-angiotensinogen and human-renin double transgenic rats (dTg rat). Briefly: Antihypertensive effect, systolic blood pressure by tail-cuff in dTg rat model.
For another data set, the target named is pepsin (Homo sapiens, UniProt P0DJD8). Briefly: Selectivity against aspartic protease pepsin. The format is biochemical.
The target in data set [2] is T1, endogenous renin in human plasma (Homo sapiens, UniProt P00797).
T1 sequence (P00797 67-406): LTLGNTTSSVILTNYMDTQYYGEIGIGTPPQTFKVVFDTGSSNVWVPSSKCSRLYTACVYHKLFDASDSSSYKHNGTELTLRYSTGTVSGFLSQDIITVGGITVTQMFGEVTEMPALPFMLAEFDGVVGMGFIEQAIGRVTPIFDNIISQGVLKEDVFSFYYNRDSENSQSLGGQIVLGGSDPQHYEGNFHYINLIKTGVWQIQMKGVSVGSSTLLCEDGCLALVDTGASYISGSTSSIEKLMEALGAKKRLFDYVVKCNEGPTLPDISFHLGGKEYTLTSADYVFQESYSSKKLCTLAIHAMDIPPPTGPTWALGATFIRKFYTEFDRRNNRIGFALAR
Briefly: Human plasma renin activity. Type of data set: biochemical. Conditions: methoxypropylamino vs furfurylamine S3sp binder (compound 5).

Data set [3] addresses T2, recombinant human renin (rh-renin) (Homo sapiens, UniProt P00797).
T2 sequence (P00797 67-406): T1 sequence (P00797 67-406)
The data set is described as follows: Rh-renin inhibition assay. Type of data set: biochemical. Particulars: 3R,5S-enantiomer vs 3S,5R-enantiomer; rh-renin or hPRA assay.

For data set [4] the following is noted: cited from earlier work.
Data set [5] in a line: Pharmacokinetic analysis in rat cassette dosing. The format is in vivo. Particulars: 1 mg/kg p.o., n = 3.

pepsin, sequence (P0DJD8 63-388): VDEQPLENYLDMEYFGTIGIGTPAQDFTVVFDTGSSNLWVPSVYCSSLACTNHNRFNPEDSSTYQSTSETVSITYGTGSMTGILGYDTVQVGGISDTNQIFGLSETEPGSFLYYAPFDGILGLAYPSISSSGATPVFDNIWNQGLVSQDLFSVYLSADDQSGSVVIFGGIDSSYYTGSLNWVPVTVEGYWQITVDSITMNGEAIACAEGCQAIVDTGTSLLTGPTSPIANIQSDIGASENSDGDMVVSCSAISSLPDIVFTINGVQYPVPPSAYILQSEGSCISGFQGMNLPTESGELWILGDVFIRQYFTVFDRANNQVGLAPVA

As to `COCCCCn1c(C(=O)N(CC(C)C)[C@@H]2CNC[C@H](C(=O)N3CCOCC3)C2)nc2ccccc21.Cl` [Compound 10, 1-(4-methoxybutyl)-N-(2-methylpropyl)-N-[(3S,5R)-5-(morpholin-4-yl)carbonylpiperidin-3-yl]-1H-benzimidazole-2-carboxamide hydrochloride], the “antihypertensive efficacy (SBP) compared with aliskiren 75 mg/kg” value in data set [1] (3 mg/kg p.o., 5 h after oral administration) was “comparable to that of aliskiren”; in data set [1] (10 mg/kg p.o., 5 and 24 h after administration), “exceeded that of aliskiren”. Also, the “antihypertensive efficacy (SBP)” value in data set [1] (3 and 10 mg/kg p.o., SBP at 5 and 24 h) was “potent and long-lasting antihypertensive efficacy in a dose-dependent manner”. The IC50 on pepsin is above 10 µM.
As for `COCCCNc1nc(C(C)(C)C)ncc1C(=O)N(CC(C)C)[C@@H]1CNC[C@H](C(=O)OC)C1` [Compound 6], the “fold decrease in renin inhibitory activity relative to the furfurylamine moiety” value in data set [2] is reported as 10 fold.
Take `COC(=O)[C@H]1CNC[C@@H](N(CC(C)C)C(=O)c2cnc(C(C)(C)C)nc2NCc2ccco2)C1` [Compound 5]: the “fold more potent toward renin than its enantiomer 4” value in data set [3] was “about 30 fold”.
On to `CC(C)CN(C(=O)c1cnc(C(C)(C)C)nc1NCc1ccco1)[C@H]1CCCNC1` [Compound 1], for which, in data set [4], the “oral bioavailability in rats” value was 13.8%.
Turning to `COCCCNc1nc(C(C)(C)C)ncc1C(=O)N(CC(C)C)[C@@H]1CNC[C@H](C(=O)N2CCOCC2)C1` [Compound 8], in data set [5], the AUCpo result was “not detected”.
